# “Also recorded” adds a separate entry of the source.
# T1: Recombinant CD81 human protein, large extracellular loop (LEL, Phe113-Lys201), Alexa Fluor 488-labeled (human, UniProt P60033 113-201, Alexa Fluor 488 dye (succinimidyl ester labeling))
# T1 construct: two additional amino acids (Gly and Pro) at the N-terminus of the LEL; CD81, human, large extracellular loop (LEL), Phe113-Lys201; also called CD81 protein; CD81 LEL; source: bought: Sino Biological (Cat. No. 14244-HNCH); labeled with the Alexa Fluor 488 protein labeling kit
# T1 sequence: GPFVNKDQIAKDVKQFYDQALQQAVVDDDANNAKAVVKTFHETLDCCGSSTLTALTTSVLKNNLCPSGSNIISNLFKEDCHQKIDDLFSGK
# B1: P153 (FMKRLRKR), EWI-2-derived eight-residue peptide (peptide)
# peptide: FMKRLRKR
# modifications: synthesized on a Fmoc-β-Alanine-activated cellulose membrane
# notes: last eight residues of human EWI-2 (immunoglobulin superfamily member 8); also called CD81-BP candidate; source: synthetic peptide, spot-synthesized on cellulose membrane (peptide array)
# B2: P97 (ASRTYRLR), EWI-2-derived eight-residue peptide (peptide)
# peptide: ASRTYRLR
# modifications: synthesized on a Fmoc-β-Alanine-activated cellulose membrane
# notes: eight-residue stretch of human EWI-2 (immunoglobulin superfamily member 8), between the Ig3 domain and the C-terminus; For the migration assay the peptide was made as a free powder on Rink amide resin; also called CD81-BP candidate; source: synthetic peptide, spot-synthesized on cellulose membrane (peptide array)
# B3: P152 (CFMKRLRK), EWI-2-derived eight-residue peptide (peptide)
# peptide: CFMKRLRK
# modifications: synthesized on a Fmoc-β-Alanine-activated cellulose membrane
# notes: eight-residue stretch of human EWI-2 (immunoglobulin superfamily member 8), near the C-terminus; For the migration assay the peptide was made as a free powder on Rink amide resin; also called CD81-BP candidate; source: synthetic peptide, spot-synthesized on cellulose membrane (peptide array)
# B4: P132 (RSHRLRLH), EWI-2-derived eight-residue peptide (peptide)
# peptide: RSHRLRLH
# modifications: synthesized on a Fmoc-β-Alanine-activated cellulose membrane
# notes: eight-residue stretch of human EWI-2 (immunoglobulin superfamily member 8), between the Ig3 domain and the C-terminus; also called CD81-BP candidate; source: synthetic peptide, spot-synthesized on cellulose membrane (peptide array)
# Key:
# [1] = system: MDA-MB-231 human breast cancer cells; test: Boyden chamber assay (CytoSelect 96-well cell migration); assay type: cell-based; details: 100 nM, 37 °C, n = 3; for Anti-migration activity, P152 vs scrambled peptides: t-test, comparison with scrambled P152-1 and P152-2 (Figure 5); for Migration of MDA-MB-231 cells vs non-treatment: 24 h (1 h pre-incubation), 5% CO2, CyQuant GR fluorescence, t-test p < 0.05
# Description: A Boyden chamber assay was performed using the CytoSelect™ 96-well cell migration assay kit (8 µm, Fluorometric Format, Cat. No. CBA-106; Cell Biolabs, Inc., San Diego, CA, USA). Human breast cancer MDA-MB-231 cells (HTB-26TM; American Type Culture Collection, Manassas, VA, USA) were suspended in serum-free D-MEM medium (1.85 × 10^5 cells/mL) containing 100 nM CD81-BP, AAAA or CD81 antibody (5A6) at 37 °C and 5% CO2 for 1 h. Then, within the Boyden chamber, 100 µL of the serum-free cell suspension was added to the upper chamber, while 150 µL of 10% FBS-containing medium was placed in the lower chamber. After incubation at 37 °C and 5% CO2 for 24 h, the cells that migrated to the lower chamber were detached from the membrane by cell detachment buffer, lysed by lysis buffer, and stained with CyQuant® GR dye. The fluorescence intensity of the cell lysate was analyzed at 480/520 nm by a microplate reader (Biomedical Solutions, Inc., Stafford, TX, USA).
# The experiment was performed with at least three replicates. The t-test was performed using Prism 9 (GraphPad Software, Inc., La Jolla, CA, USA) or Microsoft Excel (Microsoft, WA, USA) to analyze the statistical significance difference. The statistical significance was set at p-value < 0.05.
# [2] = system: Recombinant CD81 human protein (LEL Phe113-Lys201); test: Binding assay between EWI-2 peptide array and Alexa Fluor 488-labeled CD81 (screening); details: 500 nM labeled CD81, room temperature, 3 h, 3% BSA block; blank-subtracted; fluorescence scan; n = 3
# Description: The peptide array was prepared similarly to the method described in previous reports. A peptide library of eight-residue peptides was obtained by overlapping four residues from Ig3 to the C-terminus of human EWI-2 (accession number: Q969P0) (Table S1). Next, the EWI-2 peptide array was synthesized on a Fmoc-β-Alanine-activated cellulose membrane using Fmoc-based chemistry. The synthesis cycle was initiated by deprotecting the N-terminal Fmoc group with 20% piperidine in DMF and then washing it with DMF and EtOH, respectively. […]
# The Alexa Fluor™ 488 protein labeling kit (Thermo Fisher Scientific, Waltham, MA, USA) was applied to fluorescently label the CD81 protein. […] The concentration of the labeled CD81 protein solution was finally quantified using a Bradford protein assay kit (Takara Bio Inc., Shiga, Japan).
# First, to reduce nonspecific interactions, the peptide array was blocked by 3% BSA in Tris–HCl buffer at room temperature for 15 min, followed by membrane washing with Tris–HCl buffer. […] Finally, the membrane was fluorescence-scanned and imaged by a biomolecular imager (Typhoon FLA 9500; GE Healthcare, Hatfield, UK), before the spot intensity of each peptide was measured using GE Healthcare’s ImageQuant TL 8.1 software.
# [3] = target: T1, Recombinant CD81 human protein, large …; test: peptide or protein array; candidate peptides and control AAAA on cellulose membrane, blocked with 3% BSA; Alexa488-labeled CD81 at 50 nM to 1 µM, room temperature, 3 h; AAAA-subtracted spot intensity fitted to the Hill equation; estimated KD; details: both partners purified
molecule,measurement,setting,value
"FRKCKMRL [Peptide P152-1, scrambled peptide of P152 (FRKCKMRL)]","Anti-migration activity, P152 vs scrambled peptides",[1]; 24 h,showed the impact on MDA-MB-23 cell migration as seemingly as the original P152; also recorded: only P152 origin showed statistical significance (p-value < 0.05)
ASRTYRLR [Peptide P97],Spot fluorescence intensity on array (candidate selection),[2],greater than the average (AVG) and two standard deviations (SD)
same,Migration of MDA-MB-231 cells vs non-treatment,[1],no distinct inhibition was observed
"KKRCRFLM [Peptide P152-2, scrambled peptide of P152 (KKRCRFLM)]","Anti-migration activity, P152 vs scrambled peptides",[1]; 24 h,only P152 origin showed statistical significance (p-value < 0.05)
"FMKRLRKR [Peptide P153, EWI-2-derived CD81-BP candidate, FMKRLRKR]",Spot fluorescence intensity on array (candidate selection),[2],greater than the average (AVG) and two standard deviations (SD)
same,Migration of MDA-MB-231 cells vs non-treatment,[1],could significantly reduce the migration of MDA-MB-231 cells
same,Inhibition of migration compared with anti-human CD81 antibody 5A6,[1]; 24 h,comparable or competitive to an anti-CD81 monoclonal human antibody (5A6)
B1,Kd,[3],12.6 µM
B2,Kd,[3],1.06 µM
B3,Kd,[3],0.91 µM
B4,Kd,[3],1.63 µM
